Results as given in PubChem BioAssay (NCI).
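Grown in 96-well plates, cells were treated for 48 hours with each compound at five concentrations. Insufficient inhibition: endpoint recorded as highest concentration tested. GI50 marks 50% less growth. TGI is the concentration that stops growth completely.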

How the values were obtained:
Assay in all cases: inhibition of tumour cell growth, NCI panel, 48 h
MALME-3M melanoma = system: MALME-3M melanoma
NCI-H23 lung = system: NCI-H23 lung
NCI/ADR-RES ovarian = system: NCI/ADR-RES ovarian
COLO 205 colon = system: COLO 205 colon
NCI-H460 lung = system: NCI-H460 lung
SK-MEL-28 melanoma = system: SK-MEL-28 melanoma
KM12 colon = system: KM12 colon
ACHN renal = system: ACHN renal
HCC-2998 colon = system: HCC-2998 colon
A498 renal = system: A498 renal

| Structure (SMILES) | GI50 (MALME-3M melanoma) | TGI (MALME-3M melanoma) | GI50 (NCI-H23 lung) | TGI (NCI-H23 lung) | GI50 (NCI/ADR-RES ovarian) | TGI (NCI/ADR-RES ovarian) | GI50 (COLO 205 colon) | TGI (COLO 205 colon) | GI50 (NCI-H460 lung) | TGI (NCI-H460 lung) | GI50 (SK-MEL-28 melanoma) | TGI (SK-MEL-28 melanoma) | GI50 (KM12 colon) | TGI (KM12 colon) | GI50 (ACHN renal) | TGI (ACHN renal) | GI50 (HCC-2998 colon) | TGI (HCC-2998 colon) | TGI (A498 renal) | GI50 (A498 renal) |
| --- | --- | --- | --- | --- | --- | --- | --- | --- | --- | --- | --- | --- | --- | --- | --- | --- | --- | --- | --- | --- |
| Fc1cc(C2=Nn3c(nnc3-c3cc(F)c(Cl)cc3Cl)SC2)c(Cl)cc1Cl | 28.4 µM | 66.7 µM | 21.8 µM | > 100 µM | 27.4 µM | > 100 µM | 19 µM | 43.1 µM | 17.6 µM | > 100 µM | 21.5 µM | 54.3 µM | 28.5 µM | 86.8 µM | 26.6 µM | 90.9 µM | 31.6 µM | > 100 µM |  |  |
| CC12CCC3C(CCC4(O)C=CCCC34C=O)C1(O)CC(O)C2c1ccc(=O)oc1 (centres undefined) |  | 0.0877 µM |  | 0.12 µM |  | 0.282 µM |  | 0.381 µM |  | 0.0716 µM |  | 0.799 µM |  | 0.367 µM |  |  |  | 0.252 µM | 0.253 µM |  |
| Cc1ccc(NCCO)cc1 |  | > 100 µM |  | > 100 µM |  |  |  | > 100 µM |  | > 100 µM |  | > 100 µM |  | > 100 µM |  | > 100 µM |  |  |  |  |
| COc1ccc(-c2nnc3c4ccccc4sn23)cc1 |  |  |  | > 100 µM |  |  |  | > 100 µM |  | > 100 µM |  | > 100 µM |  | > 100 µM |  | > 100 µM |  | > 100 µM |  |  |
| Cc1cc(C)c(S(=O)(=O)N(CCCCCCN)OCCCON(CCCCCCN)S(=O)(=O)c2c(C)cc(C)cc2C)c(C)c1 |  | 3.66 µM |  | 3.11 µM |  | 34.6 µM |  | 3.76 µM |  | 3.07 µM |  |  |  | 4.35 µM |  | 13.1 µM |  |  | 3.02 µM |  |
| COc1ccc2c(c1)C(=O)/C(=C/c1ccccc1)C2 |  | > 100 µM |  | > 100 µM |  | 88.2 µM |  |  |  | > 100 µM |  | > 100 µM |  | > 100 µM |  |  |  |  | > 100 µM |  |
| CCCCN(CCCC)C1(c2cc3ccccc3s2)CCCCC1 |  |  |  | 29.5 µM |  | 34 µM |  | 31.3 µM |  | 27.9 µM |  | 34.1 µM |  | 30.4 µM |  | 30.3 µM |  | 27.4 µM | 34.1 µM |  |
| CC1(C)CCCC2(C)[C@@H]1CC[C@]13C[C@](C)(CC[C@@H]21)[C@@H]3CO (some centres undefined) |  | > 100 µM |  | > 100 µM |  |  |  | > 100 µM |  | > 100 µM |  | > 100 µM |  | > 100 µM |  | > 100 µM |  | > 100 µM |  |  |
| CCNc1nc2c(=O)n(C)c(=O)n(C)c2s1 |  | > 100 µM |  | > 100 µM |  |  |  | > 100 µM |  | > 100 µM |  | > 100 µM |  | > 100 µM |  | > 100 µM |  | > 100 µM | > 100 µM |  |
| C=C1CC2(C)CCC(OC(=O)C3(C)OC3C)C(C)(OC(C)=O)C2CC1=C(C)C (centres undefined) |  | > 100 µM |  | > 100 µM |  | > 100 µM |  | > 100 µM |  | > 100 µM |  | > 100 µM |  | > 100 µM |  | > 100 µM |  | > 100 µM | > 100 µM |  |
| O=C(O)CSc1nc2ccccc2[nH]1 |  | > 100 µM |  | > 100 µM |  | > 100 µM |  |  |  | > 100 µM |  | > 100 µM |  | > 100 µM |  | > 100 µM |  | > 100 µM | > 100 µM |  |
| ClCc1nnc2n1-c1ccc(Cl)cc1SC2 |  | 15.8 µM |  | 8.2 µM |  | 4.76 µM |  | 13 µM |  | 14 µM |  | 17.6 µM |  | 15.1 µM |  |  |  | 11 µM | 16.1 µM |  |
| NCCSC1(O)C(=O)c2ccccc2-c2ccccc21 (centres undefined) |  | 2.84 µM |  | 3.75 µM |  | 1.4 µM |  | 3.84 µM |  | 3.34 µM |  | 2.85 µM |  | 3.33 µM |  | 2.23 µM | 2.01 µM | 3.56 µM | 3.11 µM | 1.71 µM |
| CCOC(=O)c1csc(NC(=O)CCN2CCOCC2)n1 |  | > 100 µM |  | > 100 µM |  | > 100 µM |  | > 100 µM |  | > 100 µM |  | > 100 µM |  |  |  | > 100 µM |  | > 100 µM | > 100 µM |  |
| COc1cc(CN(C)N2C(=O)c3cccc4cc([N+](=O)[O-])cc(c34)C2=O)cc(OC)c1OC |  | > 100 µM |  | > 100 µM |  | > 100 µM |  | > 100 µM |  | > 100 µM |  | > 100 µM |  | > 100 µM |  |  |  |  | > 100 µM |  |
| O=C(NC/C=C/CO)c1ccccc1 |  | > 100 µM |  | > 100 µM |  | > 100 µM |  | > 100 µM |  | > 100 µM |  | > 100 µM |  | > 100 µM |  |  |  | > 100 µM | > 100 µM |  |
| O=c1n(Cc2ccccc2)c2ccccc2n1CC1CS1 (centres undefined) |  | > 100 µM |  |  |  |  |  | > 100 µM |  |  |  | > 100 µM |  | > 100 µM |  | > 100 µM |  | > 100 µM |  |  |
